In this experiment the target is Human-GLP-1 receptor (Homo sapiens (Human), UniProt P43220). Kind of experiment: In vitro cell activity assay (cAMP, HEK293 GLP-1 cells). The class given is cell-based. To be noted: cAMP detection. Here is the method: Experimental Example 1: In Vitro Cell Activity Assay
The host cell HEK293 for GLP-1 was constructed by WuXi AppTec (Shanghai) Co., Ltd.
cAMP Detection Kit, Cisbio (Cat #62AM4PEJ); 1M HEPES, Invitrogen (Cat #15630-106); 1×HBSS, Invitrogen (Cat #14025); BSA, Sigma (Cat #B2064); IBMX, Sigma (Cat #I5879); Exenatide, Hao Yuan (HY-13443A).
The compounds were prepared into a working solution with a concentration of 30 μM using DMSO. In this assay, each sample was used in an amount of 5 μL.
• 24.5 mL of Hanks Buffer Saline Solution (HBSS), final concentration: lx; • 125 μL of HEPES 1M, final concentration: 5 mM; • 333 μL of 7.5% BSA Solution, final concentration: 0.1%; • 25 μL of IBMX 500 mmol/L, final concentration: 0.5 mmol/L.
Preparation of cAMP assay reagent: 250 μL of cAMP-D2 and 250 μL of anti-cAMP cryptate reagent were added to 4 mL of lysis buffer and mixed gently.
The compound to be tested was diluted 3-fold at 10 points with a starting concentration of 30 μM, and the dilution was completed using Bravo.
Exenatide, used as a control compound, was diluted 3-fold at 10 points with a starting concentration of 500 nM, and the dilution was completed using Bravo. […]
• 1) A GLP-1 cell cryopreservation tube was rapidly thawed in a 37° C. water bath. • 2) The cell suspension was transferred to a 15 mL Transfer centrifuge tube and gently rinsed with 10 mL of HBSS. • 3) The centrifuge tube was centrifuged at 1000 rpm for 1 minute at room temperature. • 4) The supernatant was discarded. • 5) The cells at the bottom were gently dispersed, then rinsed with 10 mL of HBSS, centrifuged to sedimentation, and finally resuspended in the experimental buffer. • 6) The cell density and activity were measured using Vi-cell. • 7) The concentration of GLP-1 cells was diluted to 2.0*105/mL with the experimental buffer. • 8) […] of the diluted cell suspension was transferred to the OptiPlate-384 plate. • 9) The plate was incubated at room temperature for 30 minutes. […]
TopSeal-A was removed and the result was read in EnVision.

The record followed here is patent publication US20240368178A1, “IMIDAZOCYCLIC COMPOUND AND APPLICATION THEREOF” (DONGBAO PURPLE STAR (HANGZHOU) BIOPHARMACEUTICAL CO., LTD., priority 2021, published 2024).

Broadly, the EC50 is the concentration giving half of the maximal effect.

Human-GLP-1 receptor, sequence (P43220 24-463): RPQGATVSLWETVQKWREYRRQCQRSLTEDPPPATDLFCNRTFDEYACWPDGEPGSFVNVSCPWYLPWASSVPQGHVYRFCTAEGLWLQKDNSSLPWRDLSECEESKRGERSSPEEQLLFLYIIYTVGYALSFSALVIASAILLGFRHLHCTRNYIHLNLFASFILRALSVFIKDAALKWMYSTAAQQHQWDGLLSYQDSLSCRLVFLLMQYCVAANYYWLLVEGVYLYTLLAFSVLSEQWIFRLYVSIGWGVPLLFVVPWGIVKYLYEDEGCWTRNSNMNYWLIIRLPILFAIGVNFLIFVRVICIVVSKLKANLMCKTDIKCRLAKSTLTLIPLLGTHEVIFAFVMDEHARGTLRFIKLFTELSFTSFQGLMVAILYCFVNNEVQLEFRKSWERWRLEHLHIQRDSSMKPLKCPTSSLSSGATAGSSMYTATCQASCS

Turning to `C[C@]1(c2ccc(Cl)cn2)Oc2cccc(C3CCN(Cc4nc5sc(C(=O)O)c(F)c5n4C[C@@H]4CCO4)CC3)c2O1` (single isomer, unassigned) [Compound 001], the EC50 amounted to 540 pM.
